A word on the AC50: it is the concentration at which the activity in the assay is half-maximal. Broadly, the EC50 is the midpoint of the concentration-response curve.

Our source for the AC50, IC50 and EC50 values is ChEMBL document CHEMBL1201862, “PubChem BioAssay data set” (2004).

The source made the active and inactive calls. Where only a bound is given, the exact number is not on record here.

Assay [1] deals with CAAX prenyl protease 2 (Homo sapiens, UniProt Q9Y256). Kind of assay: inhibition of Ras-converting CAAX protease Rce1 – biochemical, yeast membranes, quenched-peptide fluorescence, cherry-pick, dose response (AID 588849).
Assay [2] addresses T1, CAAX prenyl protease 2 (Saccharomyces cerevisiae S288c, UniProt Q03530).
T1 sequence (Q03530 whole entry): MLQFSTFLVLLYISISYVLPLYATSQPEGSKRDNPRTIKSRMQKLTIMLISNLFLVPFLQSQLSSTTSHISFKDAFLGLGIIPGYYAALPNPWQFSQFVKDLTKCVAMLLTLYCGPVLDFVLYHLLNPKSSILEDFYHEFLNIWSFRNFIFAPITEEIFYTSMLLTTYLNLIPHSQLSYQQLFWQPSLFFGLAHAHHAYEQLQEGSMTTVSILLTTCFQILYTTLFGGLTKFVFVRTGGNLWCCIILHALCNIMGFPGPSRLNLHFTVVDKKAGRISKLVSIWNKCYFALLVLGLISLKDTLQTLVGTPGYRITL
Type of assay: biochemical.

Assay [3] can be described thus: toxicity toward cultured mammalian cells – cell-based, plate reader, cherry-pick samples, cytotoxicity control, dose response (AID 504397). Format: functional.
Assay [4] has as its target T2, Small ubiquitin-related modifier 1 (Homo sapiens, UniProt P63165). Kind of assay: SUMO1 protein-protein binding blockers, potency – biochemical, FRET, dose response (AID 624383). Type of assay: functional. The settings on record: read-out: IC50_Mean.
The target in assay [5] is T2, Small ubiquitin-related modifier 1. The experiment in a line: SUMO1 protein interaction blockers, potency – biochemical, fluorescence polarization, uHTS hits, dose response (AID 624382). Format: functional. Conditions: read-out: IC50_Mean.
Assay [6] addresses DNA dC->dU-editing enzyme APOBEC-3A (Homo sapiens, UniProt P31941). The experiment in a line: A3A deaminase inhibition for selectivity – biochemical, dose response (AID 504722). Type of assay: functional.
For assay [7], the target named is DNA dC->dU-editing enzyme APOBEC-3G (Homo sapiens, UniProt Q9HC16). The experiment in a line: Dose Response confirmation of small molecule APOBEC3G DNA Deaminase Inhibitors via a fluorescence-based single-stranded DNA deaminase assay. [Related pubchem assays (depositor defined):AID493012, AID493028]. Format: functional.
The target of assay [8] is T3, Apoptotic protease-activating factor 1 (Homo sapiens, UniProt O14727).
T3 sequence (O14727 whole entry): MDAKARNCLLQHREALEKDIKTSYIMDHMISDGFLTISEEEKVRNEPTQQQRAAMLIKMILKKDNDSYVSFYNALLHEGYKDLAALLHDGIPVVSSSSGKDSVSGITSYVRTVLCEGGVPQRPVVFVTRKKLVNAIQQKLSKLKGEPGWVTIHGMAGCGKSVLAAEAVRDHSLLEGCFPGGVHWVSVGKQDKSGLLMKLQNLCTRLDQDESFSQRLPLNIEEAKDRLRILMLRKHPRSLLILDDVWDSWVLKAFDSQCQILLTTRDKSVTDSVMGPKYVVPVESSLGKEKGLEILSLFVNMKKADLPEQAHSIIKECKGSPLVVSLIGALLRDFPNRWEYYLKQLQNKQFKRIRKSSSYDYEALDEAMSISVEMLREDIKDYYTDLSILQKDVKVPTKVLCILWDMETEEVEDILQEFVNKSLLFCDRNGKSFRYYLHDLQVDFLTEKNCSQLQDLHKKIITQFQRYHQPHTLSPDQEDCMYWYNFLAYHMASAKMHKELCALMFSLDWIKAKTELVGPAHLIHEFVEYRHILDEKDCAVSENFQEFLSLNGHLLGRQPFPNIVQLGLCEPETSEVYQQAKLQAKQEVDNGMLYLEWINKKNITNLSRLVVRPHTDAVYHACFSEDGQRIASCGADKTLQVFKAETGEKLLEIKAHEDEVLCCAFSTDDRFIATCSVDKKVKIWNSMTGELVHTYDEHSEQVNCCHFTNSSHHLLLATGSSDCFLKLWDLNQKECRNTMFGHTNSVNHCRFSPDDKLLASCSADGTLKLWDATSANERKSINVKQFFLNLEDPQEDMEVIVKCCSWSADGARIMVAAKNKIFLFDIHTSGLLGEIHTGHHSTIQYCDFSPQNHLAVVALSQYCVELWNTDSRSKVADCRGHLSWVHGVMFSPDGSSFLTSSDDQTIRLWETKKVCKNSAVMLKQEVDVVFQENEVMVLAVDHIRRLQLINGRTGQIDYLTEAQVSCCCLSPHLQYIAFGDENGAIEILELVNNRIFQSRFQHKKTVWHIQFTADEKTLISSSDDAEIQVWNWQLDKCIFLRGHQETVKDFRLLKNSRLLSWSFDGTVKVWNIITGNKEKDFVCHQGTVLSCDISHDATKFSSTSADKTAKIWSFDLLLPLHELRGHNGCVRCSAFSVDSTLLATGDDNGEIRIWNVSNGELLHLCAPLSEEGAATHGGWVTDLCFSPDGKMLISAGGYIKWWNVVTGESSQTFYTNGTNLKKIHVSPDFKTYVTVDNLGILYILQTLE
Kind of assay: activation of Apaf-1 mediated apoptosis – fluorescent, uHTS hits, dose response (AID 588554). Type of assay: functional.

Assay [9] addresses T4, Hexokinase HKDC1 (Homo sapiens, UniProt Q2TB90).
T4 sequence (Q2TB90 whole entry): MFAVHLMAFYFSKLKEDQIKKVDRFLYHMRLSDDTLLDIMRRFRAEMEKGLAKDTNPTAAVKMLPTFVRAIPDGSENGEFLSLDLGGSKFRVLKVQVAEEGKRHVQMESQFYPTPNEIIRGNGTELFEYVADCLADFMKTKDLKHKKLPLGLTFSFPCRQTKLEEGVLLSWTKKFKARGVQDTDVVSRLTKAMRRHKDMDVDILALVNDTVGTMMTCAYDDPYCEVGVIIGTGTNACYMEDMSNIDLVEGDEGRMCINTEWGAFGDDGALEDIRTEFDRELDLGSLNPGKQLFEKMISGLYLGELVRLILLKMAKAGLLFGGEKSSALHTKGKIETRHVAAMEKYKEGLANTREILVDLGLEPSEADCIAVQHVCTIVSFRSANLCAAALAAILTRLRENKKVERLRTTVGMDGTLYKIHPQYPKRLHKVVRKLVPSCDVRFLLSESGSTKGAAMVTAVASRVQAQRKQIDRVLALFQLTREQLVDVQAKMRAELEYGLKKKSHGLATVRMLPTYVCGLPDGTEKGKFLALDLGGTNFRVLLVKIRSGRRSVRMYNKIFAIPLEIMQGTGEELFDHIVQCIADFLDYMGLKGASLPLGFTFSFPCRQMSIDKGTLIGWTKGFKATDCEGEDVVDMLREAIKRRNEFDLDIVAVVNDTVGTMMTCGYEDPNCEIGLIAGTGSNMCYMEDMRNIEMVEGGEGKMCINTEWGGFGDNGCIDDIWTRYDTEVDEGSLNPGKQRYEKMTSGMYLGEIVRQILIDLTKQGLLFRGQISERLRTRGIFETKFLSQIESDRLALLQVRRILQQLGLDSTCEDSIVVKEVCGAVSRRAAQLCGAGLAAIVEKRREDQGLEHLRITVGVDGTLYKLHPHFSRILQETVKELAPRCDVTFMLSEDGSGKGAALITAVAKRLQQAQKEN
Kind of assay: analog inhibition of human HKDC1 activity – biochemical, set 2, SAR follow-up (AID 588355). Format: functional.

Assay [10] has as its target T5, Hexokinase-1 (Homo sapiens, UniProt P19367).
T5 sequence (P19367 whole entry): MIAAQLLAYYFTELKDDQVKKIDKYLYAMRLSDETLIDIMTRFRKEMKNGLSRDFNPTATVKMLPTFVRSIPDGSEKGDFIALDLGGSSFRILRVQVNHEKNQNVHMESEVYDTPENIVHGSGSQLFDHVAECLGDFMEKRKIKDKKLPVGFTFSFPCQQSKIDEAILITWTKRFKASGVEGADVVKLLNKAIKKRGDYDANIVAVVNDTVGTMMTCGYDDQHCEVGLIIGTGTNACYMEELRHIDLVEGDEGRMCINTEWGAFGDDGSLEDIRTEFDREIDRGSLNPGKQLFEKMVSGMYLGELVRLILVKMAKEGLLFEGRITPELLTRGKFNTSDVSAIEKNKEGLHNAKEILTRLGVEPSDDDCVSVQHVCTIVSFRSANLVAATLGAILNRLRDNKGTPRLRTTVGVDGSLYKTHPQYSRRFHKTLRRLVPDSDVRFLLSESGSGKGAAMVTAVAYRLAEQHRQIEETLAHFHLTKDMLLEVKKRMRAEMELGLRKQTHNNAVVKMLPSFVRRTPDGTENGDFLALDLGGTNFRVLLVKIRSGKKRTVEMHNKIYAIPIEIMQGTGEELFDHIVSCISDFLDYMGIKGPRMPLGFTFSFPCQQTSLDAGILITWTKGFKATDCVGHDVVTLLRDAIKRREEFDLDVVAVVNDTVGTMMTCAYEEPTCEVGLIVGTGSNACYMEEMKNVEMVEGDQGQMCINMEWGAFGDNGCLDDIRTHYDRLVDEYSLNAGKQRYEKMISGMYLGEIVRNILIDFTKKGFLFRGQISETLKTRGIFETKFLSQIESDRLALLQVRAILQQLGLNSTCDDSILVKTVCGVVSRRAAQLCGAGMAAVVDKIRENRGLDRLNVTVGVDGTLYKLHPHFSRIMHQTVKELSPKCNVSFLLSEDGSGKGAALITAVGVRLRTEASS
The experiment in a line: hexokinase 1 activity inhibitors, potency – biochemical, set 2, resazurin fluorescence coupled readout, selectivity assay for HKDC1 inhibitor project, SAR follow-up (AID 588356). Type of assay: functional.

T2 sequence (P63165 whole entry): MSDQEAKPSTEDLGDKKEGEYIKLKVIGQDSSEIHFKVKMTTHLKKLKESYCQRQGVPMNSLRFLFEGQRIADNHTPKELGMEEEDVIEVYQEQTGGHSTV
Chain of CAAX prenyl protease 2 (Homo sapiens, UniProt Q9Y256) (Q9Y256 whole entry): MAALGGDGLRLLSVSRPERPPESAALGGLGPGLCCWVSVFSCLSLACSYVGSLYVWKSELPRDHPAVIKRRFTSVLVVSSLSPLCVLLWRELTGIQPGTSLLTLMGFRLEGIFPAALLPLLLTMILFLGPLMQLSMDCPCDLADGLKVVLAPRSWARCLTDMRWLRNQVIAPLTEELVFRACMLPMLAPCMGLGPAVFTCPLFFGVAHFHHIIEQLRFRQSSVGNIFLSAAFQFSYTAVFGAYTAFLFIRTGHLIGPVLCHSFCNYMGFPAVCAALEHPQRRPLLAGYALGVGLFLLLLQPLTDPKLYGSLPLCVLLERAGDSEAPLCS
Chain of DNA dC->dU-editing enzyme APOBEC-3A (P31941 whole entry): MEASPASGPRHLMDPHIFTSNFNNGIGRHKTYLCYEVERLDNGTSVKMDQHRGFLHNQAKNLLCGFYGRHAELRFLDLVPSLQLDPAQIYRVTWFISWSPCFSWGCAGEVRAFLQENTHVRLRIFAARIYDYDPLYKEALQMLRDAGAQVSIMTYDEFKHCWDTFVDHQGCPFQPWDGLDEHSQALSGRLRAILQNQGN
Chain of DNA dC->dU-editing enzyme APOBEC-3G (Q9HC16 whole entry): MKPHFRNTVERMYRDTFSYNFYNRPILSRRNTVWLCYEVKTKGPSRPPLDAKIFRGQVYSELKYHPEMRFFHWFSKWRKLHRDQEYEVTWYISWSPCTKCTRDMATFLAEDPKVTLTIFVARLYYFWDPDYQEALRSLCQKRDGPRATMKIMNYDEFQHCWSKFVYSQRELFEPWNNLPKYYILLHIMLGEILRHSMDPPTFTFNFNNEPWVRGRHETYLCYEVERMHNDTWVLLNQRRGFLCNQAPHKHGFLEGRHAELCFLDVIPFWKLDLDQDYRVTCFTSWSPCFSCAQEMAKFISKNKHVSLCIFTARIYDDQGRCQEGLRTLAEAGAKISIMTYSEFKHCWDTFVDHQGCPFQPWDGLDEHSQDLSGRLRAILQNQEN

With `Clc1ccc(CN2CCc3c([nH]c4ccccc34)C2)cc1Cl`, the half-maximal activity concentration (AC50) in assay [1] is 13.9 µM (active); in [2] it was 2.03 µM (active); in assay [3], 18.3 µM (active).
`C=C(C)C(=O)Nc1cccc(C2=NOC3(C2)C[C@H](C(N)=O)N(C(=O)c2ccccc2C(=O)c2ccccc2)C3)c1` (stereo not given in full): the IC50 in assay [4] is 2.73 µM (active); in assay [5], > 66.6 µM (inactive); in assay [6], > 100 µM (inactive); in [7], 8.19 µM (active). Further, the EC50 in assay [8] was 3.71 µM (active).
With `COc1cccc(N2C(=O)c3cccnc3C2Nc2ccc(C)c(C)c2)c1` (stereo not given), the IC50 in assay [9] and in [10] was > 80 µM (inactive) each time.
